Laboratory results reported in patent publication US9422263B2, “Fluoro-substituted 3,5-dicyano-4-(1H-indazol-5-yl)-2,6-dimethyl-1,4-dihydropyridine derivatives and methods of use thereof” (BAYER PHARMA AKTIENGESELLSCHAFT, priority 2009, dated 2016).

Legend:
[1] = Pharmacokinetics after peroral administration of test compounds; type: in vivo, rat; conditions: for in vivo PK, rat p.o. F / in vivo PK, rat p.o. AUCnorm: male Wistar rats; for in vivo PK, rat p.o. F: bioavailability; for in vivo PK, rat p.o. AUCnorm: dose and body weight-normalized AUC; for Fraction absorbed fabs, calc: rat p.o., fabs,calc=[F/Fmax,calc]*100
Protocol: Pharmacokinetics after Peroral Administration of Test Compounds: Male Wistar rats (Harlan Laboratories) are anesthetized and a catheter is inserted into the jugular vein of the rat. The next day, a defined dose of the test compound is administered perorally. Blood samples are collected through the jugular catheter during the next 24 h (8-11 time points). Blood is centrifuged in heparin-tubes, and each plasma sample is treated with acetonitrile for protein precipitation. After centrifugation, the test compound in the supernatant is quantified using an LC-MS/MS method. The determined plasma concentrations are used for the determination of pharmacokinetic parameters, such as AUC (area under the plasma concentration vs. time curve), Cmax (highest test compound concentration observed in plasma following administration), t1/2 (half-life) and F (bioavailability). The fraction of the dose absorbed (fabs,calc) is calculated by the equation fabs,calc=[F/Fmax,calc]*100, wherein F is the determined bioavailability after peroral administration and Fmax,calc is the theoretically maximum achievable bioavailability considering the determined blood clearance and assuming that the test compound is completely absorbed.

[2] = biological target: Recombinant human c-Met protein (Homo sapiens (Human), UniProt P08581); test: c-Met receptor tyrosine kinase activity assay (NADH read-out); type: biochemical; conditions: ATP 30 μM, c-Met 30 nM
Protocol: c-Met Receptor Tyrosine Kinase Activity Assay (NADH Read-Out):
Recombinant human c-Met protein (Invitrogen, Carlsbad, Calif., USA) is used. As substrate for the kinase reaction the peptide KKKSPGEYVNIEFG (JPT, Germany) is used. For the assay, 1 μL of a 51-fold concentrated solution of the test compound in DMSO is pipetted into a white 384-well microtiter plate (Greiner Bio-One, Frickenhausen, Germany). 25 μL of a solution of c-Met (final concentration 30 nM) and pyruvate kinase/lactate dehydrogenase (Roche Diagnostics, Mannheim, Germany; final concentration 8 mg/L) in assay buffer [3-(N-morpholino)propanesulfonic acid (MOPS), 50 mM, pH 7; MgCl2, 10 mM; bovine serum albumin (BSA), 0.01%; Triton X 100, 0.01%; DTT, 2 mM] are added, and the mixture is incubated for 5 min at room temperature. Then, the kinase reaction is started by the addition of 25 μL of a solution of adenosine triphosphate (ATP, final concentration 30 μM), substrate (final concentration 100 μM), nicotinamide adenine dinucleo-tide (NADH, final concentration 50 μM) and dithiothreitol (DTT, final concentration 2 mM) in assay buffer, and the resulting mixture is incubated for a reaction time of 100 min at 32° C.
Subsequently, the amount of phosphorylated substrate is evaluated by measurement of the decrease of NADH fluorescence. Therefore, the fluorescence emissions at 465 nm after excitation at 340 nm is measured in a fluorescence reader, e.g. Tecan Ultra (Tecan, Männedorf, Switzerland). The data are normalised (enzyme reaction without inhibitor=0% inhibition; all other assay components but no enzyme=100% inhibition).

Sequence of Recombinant human c-Met protein (P08581 25-1390): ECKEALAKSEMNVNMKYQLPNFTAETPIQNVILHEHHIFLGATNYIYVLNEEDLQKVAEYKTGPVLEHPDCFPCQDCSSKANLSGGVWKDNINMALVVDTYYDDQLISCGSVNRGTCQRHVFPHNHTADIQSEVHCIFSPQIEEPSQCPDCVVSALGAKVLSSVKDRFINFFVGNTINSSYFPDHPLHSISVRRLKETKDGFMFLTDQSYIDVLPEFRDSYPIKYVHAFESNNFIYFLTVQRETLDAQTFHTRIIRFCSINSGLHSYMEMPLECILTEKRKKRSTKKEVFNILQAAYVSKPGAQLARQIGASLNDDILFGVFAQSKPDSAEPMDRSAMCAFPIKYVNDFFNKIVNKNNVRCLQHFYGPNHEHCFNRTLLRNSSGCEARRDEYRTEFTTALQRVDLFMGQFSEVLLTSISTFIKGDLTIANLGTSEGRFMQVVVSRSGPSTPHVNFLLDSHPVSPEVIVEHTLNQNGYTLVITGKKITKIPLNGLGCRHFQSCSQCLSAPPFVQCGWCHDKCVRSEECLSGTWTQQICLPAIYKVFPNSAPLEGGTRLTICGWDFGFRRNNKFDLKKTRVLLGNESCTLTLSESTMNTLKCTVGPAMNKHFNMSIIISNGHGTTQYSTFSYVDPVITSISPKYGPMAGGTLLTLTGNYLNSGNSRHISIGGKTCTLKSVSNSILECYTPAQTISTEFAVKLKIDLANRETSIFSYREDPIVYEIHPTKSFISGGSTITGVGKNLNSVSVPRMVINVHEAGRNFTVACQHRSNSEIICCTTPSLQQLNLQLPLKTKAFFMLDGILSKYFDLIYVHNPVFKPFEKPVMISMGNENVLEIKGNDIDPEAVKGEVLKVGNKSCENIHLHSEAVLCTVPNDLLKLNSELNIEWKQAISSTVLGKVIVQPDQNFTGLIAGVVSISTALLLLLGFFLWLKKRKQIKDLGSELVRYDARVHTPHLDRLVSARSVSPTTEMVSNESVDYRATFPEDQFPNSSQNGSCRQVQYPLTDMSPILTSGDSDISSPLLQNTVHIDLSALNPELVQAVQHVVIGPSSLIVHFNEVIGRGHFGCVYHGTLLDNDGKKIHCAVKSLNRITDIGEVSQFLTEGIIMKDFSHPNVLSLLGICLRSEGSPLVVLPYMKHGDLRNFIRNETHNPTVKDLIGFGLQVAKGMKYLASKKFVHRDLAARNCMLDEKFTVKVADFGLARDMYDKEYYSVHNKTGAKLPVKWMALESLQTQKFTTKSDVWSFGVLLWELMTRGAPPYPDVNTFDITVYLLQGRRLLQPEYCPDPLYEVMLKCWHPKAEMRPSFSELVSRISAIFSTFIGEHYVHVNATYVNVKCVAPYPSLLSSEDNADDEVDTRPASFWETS

Compound	in vivo PK, rat p.o. F [1]	in vivo PK, rat p.o. AUCnorm [1]	Fraction absorbed fabs, calc [1]	IC50 [2]
CC1=C(C#N)C(c2ccc3[nH]nc(C)c3c2)C(C#N)=C(C(F)F)N1 (single isomer, unassigned) [Example 3, 2-(Difluoromethyl)-6-methyl-4-(3-methyl-1H-indazol-5-yl)-1,4-dihydropyridine-3,5-dicarbonitrile]	33%	0.16 kg·h/L	131%	6 nM
CC1=C(C#N)C(c2ccc3[nH]nc(C)c3c2)C(C#N)=C(C(F)(F)F)N1 (single isomer, unassigned) [Example 6]	62%	0.70 kg·h/L	104%	12 nM
Cc1n[nH]c2cc(F)c(C3C(C#N)=C(C(F)F)NC(C(F)F)=C3C#N)cc12 [Example 14, 2,6-Bis(difluoromethyl)-4-(6-fluoro-3-methyl-1H-indazol-5-yl)-1,4-dihydropyridine-3,5-dicarbonitrile]	62%	4.73 kg·h/L	67%	26 nM
